Laboratory results published in US6610729B1, “Hydroxamic acid derivatives and medicinal utilization thereof” (Mitsubishi Pharma Corporation, priority 1998, dated 2003).
pIC50: −log10 of the molar value.

Key:
[1] = Solubility in saline (0.9% aqueous sodium chloride solution) at 25° C.; format: physicochemical; settings: for solubility: saline or isotonic
Protocol: The solubility of the Example compounds of the present invention in saline (0.9% aqueous sodium chloride solution) at 25° C. was measured.

[2] = system: release of TNF α from LPS treated human whole blood; assay: Inhibitory activity of TNF α release from LPS treated human whole blood (ELISA); format: cell-based; settings: LPS treated human whole blood diluted 4-fold, 24 hr, 37° C., TNF α by ELISA
Protocol: The inhibitory effect of each compound (compounds of Examples 2, 6, 7, 10, 11, 37, 147, 231 and 245) on the release of TNF α from LPS treated human whole blood [see: Lymphokine Res 8, 141-146 (1989)] was investigated.
Human whole blood was diluted 4-fold with RPMI1640 medium supplemented with 10% FCS. The diluted blood was dispensed to a 96 multi-well plate by 100 μl and equilibrated under the conditions of 37° C., 5% CO2. LPS (2 μg/ml) was prepared with RPMI1640 medium supplemented with 10% FCS and a culture broth prepared by dissolving each compound (dissolved in dimethyl sulfoxide) in the LPS solution was added by 100 μl/well (final concentrated of dimethyl sulfoxide 0.1%), which was followed by incubation for 24 hr (37° C., 5% CO2). After the incubation, the reaction mixture was centrifuged (1,500 rpm, 5 min). The culture supernatant (40 μl/well) was collected, and TNF α amount in the supernatant was quantitatively measured by ELISA. The TNF α release inhibitory effect by each compound was calculated from the proportion of release TNF α amount of the compound addition group relitive to that of the compound non-addition group.

[3] = system: release of TNF α from THP-1 cells; assay: Inhibitory activity of TNF α release from THP-1 cells (LPS, ELISA); format: cell-based; settings: 3 hr, 37° C., TNF α by ELISA
Protocol: The inhibitory effect of each compound (compounds of Examples 1, 2, 3, 6, 35, 39 and 44) on the release of TNF α from THP-1 cells which are monocyte cultured cells [see Nature 370, 218-220 (1994)] was investigated.
The THP-1 cells were suspended to a concentration of 1×10 ^6 cells/ml in RPMI1640 medium supplemented with 10% fetal calf serum (FCS) and dispensed by 100 μl. A 2 μg/ml LPS was prepared with RPMI1640 medium supplemented with 10% FCS. Each compound (dissolved in dimethyl sulfoxide) was diluted 500-fold with the LPS solution.
The diluted solutions of these compounds were added to the dispensed cell suspensions by 100 μl and allowed for 3 hr to react under the conditions of 37° C., 5% CO2. After the completion of the reaction, the reaction mixture was centrifuged and the culture supernatant was collected. The TNF α amount was quantitatively measured by ELISA (enzyme-linked immunosorbent assay). The TNF α release inhibitory effect by each compound was calculated from the proportion of released TNF α amount of the compound addition group relative to that of the compound non-addition group.

| solubility [1] [mg/mL] | pIC50 [2] | pIC50 ([3]; Homo sapiens) | SMILES | Solubility, saline [1] [mg/mL] | pIC50 [3] |
| --- | --- | --- | --- | --- | --- |
| > 5 | 6.19 | 6.70 | CC(C)C[C@@H](C(=O)N[C@@H](Cc1ccccc1)C(=O)c1ccc(OCCN(C)C)cc1)C(CN1C(=O)c2ccccc2C1=O)C(=O)NO.Cl (single isomer, unassigned) [Example 2, 3(R)-[1(S)-[4-(2-Dimethylaminoethoxy)benzoyl]-2-phenyl]ethylcarbamoyl-5-methyl-2(R or S)-phthalimidomethylhexanohydroxamic Acid Hydrochloride] | – | – |
| > 20 | 5.86 | 6.18 | CC(C)C[C@@H](C(=O)N[C@@H](Cc1ccc(OS(=O)(=O)[O-])cc1)C(=O)c1ccco1)C(CN1C(=O)c2ccccc2C1=O)C(=O)NO.[Na+] (single isomer, unassigned) [Example 6, Sodium Salt of 3(R)-[1(S)-(2-furyl)carbonyl-2-[4-(hydroxysulfonyloxy)phenyl]]ethylcarbamoyl-5-methyl-2(R or S)-phthalimidomethylhexanohydroxamic Acid] | – | – |
| – | – | – | CC(C)C[C@@H](C(=O)N[C@H](C(=O)c1ccc(OCCN(C)C)cc1)C(C)(C)C)C(CN1C(=O)c2ccccc2C1=O)C(=O)NO.Cl (single isomer, unassigned) [Example 39, 3(R)-[2,2-Dimethyl-1(S)-[4-(2-dimethylaminoethoxy)benzoyl]]propylcarbamoyl-5-methyl-2(R or S)-phthalimidomethylhexanohydroxamic Acid Hydrochloride] | >20 | 6.52 |
